Here are results for 3 compounds from ChEMBL document CHEMBL4257082, “Nhe3-binding compounds and methods for inhibiting phosphate transport” (2016).

For assay [1], the target named is Sodium/hydrogen exchanger 1 (Rattus norvegicus, UniProt P26431). Put plainly: Inhibition of rat NHE1.
Assay [2] addresses T1, Sodium/hydrogen exchanger 2 (Rattus norvegicus, UniProt P48763).
T1 sequence (P48763 whole entry): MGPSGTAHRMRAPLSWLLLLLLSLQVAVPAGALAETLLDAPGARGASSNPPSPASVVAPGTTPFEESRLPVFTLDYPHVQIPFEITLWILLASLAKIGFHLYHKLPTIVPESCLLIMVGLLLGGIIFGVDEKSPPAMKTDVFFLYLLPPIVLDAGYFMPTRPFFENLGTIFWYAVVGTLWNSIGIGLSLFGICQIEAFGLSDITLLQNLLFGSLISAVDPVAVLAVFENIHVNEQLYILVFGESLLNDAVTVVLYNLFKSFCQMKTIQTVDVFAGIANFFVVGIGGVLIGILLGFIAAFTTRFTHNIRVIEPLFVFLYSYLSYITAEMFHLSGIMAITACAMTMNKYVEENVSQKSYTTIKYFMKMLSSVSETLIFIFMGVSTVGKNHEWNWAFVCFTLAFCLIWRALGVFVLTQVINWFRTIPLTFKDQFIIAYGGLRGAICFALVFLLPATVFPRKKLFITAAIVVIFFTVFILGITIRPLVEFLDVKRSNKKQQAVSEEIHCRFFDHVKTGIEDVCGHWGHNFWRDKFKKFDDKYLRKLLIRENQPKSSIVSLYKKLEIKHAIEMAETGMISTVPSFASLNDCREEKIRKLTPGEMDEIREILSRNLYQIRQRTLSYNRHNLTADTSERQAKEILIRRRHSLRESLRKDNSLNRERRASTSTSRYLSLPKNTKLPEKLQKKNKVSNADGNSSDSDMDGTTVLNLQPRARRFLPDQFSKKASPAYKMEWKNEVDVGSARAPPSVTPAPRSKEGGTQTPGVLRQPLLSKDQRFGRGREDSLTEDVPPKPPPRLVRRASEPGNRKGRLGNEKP
In words: Inhibition of rat NHE2.

The target in assay [3] is Sodium/hydrogen exchanger 3 (Rattus norvegicus, UniProt P26433). Put plainly: Inhibition of rat NHE3.
In assay [4] the target is Sodium/hydrogen exchanger 1 (Oryctolagus cuniculus, UniProt P23791). In words: Inhibition of rabbit NHE1.
The target in assay [5] is T2, Sodium/hydrogen exchanger 2 (Oryctolagus cuniculus, UniProt P50482).
T2 sequence (P50482 whole entry): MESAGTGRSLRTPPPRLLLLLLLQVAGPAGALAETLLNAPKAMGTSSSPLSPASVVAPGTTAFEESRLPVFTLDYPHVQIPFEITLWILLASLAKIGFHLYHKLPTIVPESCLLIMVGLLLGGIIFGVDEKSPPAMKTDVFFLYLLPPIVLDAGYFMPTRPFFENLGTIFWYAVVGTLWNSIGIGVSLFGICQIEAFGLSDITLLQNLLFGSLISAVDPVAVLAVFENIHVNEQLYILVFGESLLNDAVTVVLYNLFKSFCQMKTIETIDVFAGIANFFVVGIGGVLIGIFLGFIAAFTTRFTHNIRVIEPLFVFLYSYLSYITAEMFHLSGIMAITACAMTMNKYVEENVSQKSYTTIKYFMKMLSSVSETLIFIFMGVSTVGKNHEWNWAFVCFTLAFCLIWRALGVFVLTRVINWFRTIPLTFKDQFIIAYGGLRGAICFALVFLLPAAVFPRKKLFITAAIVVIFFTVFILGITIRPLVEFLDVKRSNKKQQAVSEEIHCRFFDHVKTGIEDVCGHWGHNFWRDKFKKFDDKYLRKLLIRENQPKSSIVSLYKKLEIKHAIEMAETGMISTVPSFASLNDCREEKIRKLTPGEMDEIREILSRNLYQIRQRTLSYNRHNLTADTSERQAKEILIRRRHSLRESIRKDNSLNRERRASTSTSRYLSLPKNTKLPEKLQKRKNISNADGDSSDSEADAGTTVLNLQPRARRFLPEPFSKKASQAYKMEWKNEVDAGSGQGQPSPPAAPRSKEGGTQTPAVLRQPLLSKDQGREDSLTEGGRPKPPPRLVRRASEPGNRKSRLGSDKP
In words: Inhibition of rabbit NHE2.

Assay [6] concerns the target T3, Sodium/hydrogen exchanger 5 (Homo sapiens, UniProt Q14940).
T3 sequence (Q14940 whole entry): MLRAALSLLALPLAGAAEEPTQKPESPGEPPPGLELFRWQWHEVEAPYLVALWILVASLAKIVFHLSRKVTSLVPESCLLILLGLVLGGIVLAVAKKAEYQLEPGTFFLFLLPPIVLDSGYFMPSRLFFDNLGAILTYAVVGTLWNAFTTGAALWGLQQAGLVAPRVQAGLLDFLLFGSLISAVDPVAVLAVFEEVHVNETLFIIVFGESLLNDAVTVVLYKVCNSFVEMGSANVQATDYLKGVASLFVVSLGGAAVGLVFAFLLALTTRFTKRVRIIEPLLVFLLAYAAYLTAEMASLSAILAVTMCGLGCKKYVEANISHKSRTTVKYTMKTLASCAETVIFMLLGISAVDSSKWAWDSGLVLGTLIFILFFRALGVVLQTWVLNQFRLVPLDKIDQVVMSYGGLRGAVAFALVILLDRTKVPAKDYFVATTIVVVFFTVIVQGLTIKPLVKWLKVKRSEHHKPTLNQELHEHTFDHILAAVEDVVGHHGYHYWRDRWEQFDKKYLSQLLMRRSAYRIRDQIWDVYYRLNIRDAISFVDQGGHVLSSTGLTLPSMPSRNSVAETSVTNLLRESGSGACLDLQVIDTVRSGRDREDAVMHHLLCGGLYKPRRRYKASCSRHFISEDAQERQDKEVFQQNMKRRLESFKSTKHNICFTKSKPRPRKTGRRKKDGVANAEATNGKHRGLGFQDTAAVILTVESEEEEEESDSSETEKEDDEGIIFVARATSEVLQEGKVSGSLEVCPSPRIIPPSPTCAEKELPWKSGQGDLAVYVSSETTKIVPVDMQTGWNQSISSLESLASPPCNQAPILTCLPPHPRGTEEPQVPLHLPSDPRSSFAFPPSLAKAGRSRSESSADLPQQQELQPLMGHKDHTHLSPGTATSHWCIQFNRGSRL
In words: Inhibition of NHE5 (unknown origin).

Assay [7] is filed under the species Homo sapiens. Put plainly: Selectivity ratio of IC50 for NHE3 (unknown origin) to IC50 for NHE1 (unknown origin).

Chain of Sodium/hydrogen exchanger 1 (Rattus norvegicus, UniProt P26431) (P26431 whole entry): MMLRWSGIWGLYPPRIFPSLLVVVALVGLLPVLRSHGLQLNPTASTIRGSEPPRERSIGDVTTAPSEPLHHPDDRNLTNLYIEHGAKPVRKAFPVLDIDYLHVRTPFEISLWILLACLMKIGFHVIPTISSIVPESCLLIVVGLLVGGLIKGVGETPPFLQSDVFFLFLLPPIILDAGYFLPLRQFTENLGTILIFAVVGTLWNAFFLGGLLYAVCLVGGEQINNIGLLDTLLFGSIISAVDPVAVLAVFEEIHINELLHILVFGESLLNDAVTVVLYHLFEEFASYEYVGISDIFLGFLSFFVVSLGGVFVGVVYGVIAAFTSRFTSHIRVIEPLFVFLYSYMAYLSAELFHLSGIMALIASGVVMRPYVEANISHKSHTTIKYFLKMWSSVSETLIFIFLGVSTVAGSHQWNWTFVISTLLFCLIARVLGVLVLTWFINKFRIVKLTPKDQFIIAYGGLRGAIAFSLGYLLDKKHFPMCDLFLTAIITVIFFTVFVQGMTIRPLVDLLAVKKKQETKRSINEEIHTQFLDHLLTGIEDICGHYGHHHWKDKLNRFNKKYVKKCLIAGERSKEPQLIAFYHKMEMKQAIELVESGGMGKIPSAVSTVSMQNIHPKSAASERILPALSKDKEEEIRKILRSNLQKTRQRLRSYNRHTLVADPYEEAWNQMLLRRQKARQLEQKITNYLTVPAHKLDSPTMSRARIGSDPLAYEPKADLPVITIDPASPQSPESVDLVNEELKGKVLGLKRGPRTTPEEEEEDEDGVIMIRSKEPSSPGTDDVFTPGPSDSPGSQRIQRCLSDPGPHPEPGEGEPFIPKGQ
Chain of Sodium/hydrogen exchanger 3 (P26433 whole entry): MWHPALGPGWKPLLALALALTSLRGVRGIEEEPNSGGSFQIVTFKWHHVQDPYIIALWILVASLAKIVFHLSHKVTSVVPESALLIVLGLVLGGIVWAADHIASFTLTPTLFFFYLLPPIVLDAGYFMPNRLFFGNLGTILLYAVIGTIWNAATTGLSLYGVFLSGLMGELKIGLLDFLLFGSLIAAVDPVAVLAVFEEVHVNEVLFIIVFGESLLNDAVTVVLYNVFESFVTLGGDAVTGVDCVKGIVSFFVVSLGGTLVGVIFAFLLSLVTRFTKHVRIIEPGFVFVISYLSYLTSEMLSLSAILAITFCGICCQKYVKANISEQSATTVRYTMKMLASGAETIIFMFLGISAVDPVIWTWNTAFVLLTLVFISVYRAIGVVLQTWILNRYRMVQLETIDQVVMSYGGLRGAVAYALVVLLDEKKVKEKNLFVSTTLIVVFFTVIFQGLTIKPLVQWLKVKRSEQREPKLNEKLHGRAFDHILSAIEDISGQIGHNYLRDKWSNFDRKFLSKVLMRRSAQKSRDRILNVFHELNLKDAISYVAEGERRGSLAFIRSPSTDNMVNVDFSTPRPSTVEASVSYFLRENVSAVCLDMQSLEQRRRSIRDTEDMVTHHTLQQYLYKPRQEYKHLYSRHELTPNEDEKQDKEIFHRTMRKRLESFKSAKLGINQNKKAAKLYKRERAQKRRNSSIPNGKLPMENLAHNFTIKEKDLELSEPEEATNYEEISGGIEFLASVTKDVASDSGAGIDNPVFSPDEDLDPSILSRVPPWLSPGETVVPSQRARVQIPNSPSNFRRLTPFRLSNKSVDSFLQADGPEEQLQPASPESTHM
Chain of Sodium/hydrogen exchanger 1 (Oryctolagus cuniculus, UniProt P23791) (P23791 whole entry): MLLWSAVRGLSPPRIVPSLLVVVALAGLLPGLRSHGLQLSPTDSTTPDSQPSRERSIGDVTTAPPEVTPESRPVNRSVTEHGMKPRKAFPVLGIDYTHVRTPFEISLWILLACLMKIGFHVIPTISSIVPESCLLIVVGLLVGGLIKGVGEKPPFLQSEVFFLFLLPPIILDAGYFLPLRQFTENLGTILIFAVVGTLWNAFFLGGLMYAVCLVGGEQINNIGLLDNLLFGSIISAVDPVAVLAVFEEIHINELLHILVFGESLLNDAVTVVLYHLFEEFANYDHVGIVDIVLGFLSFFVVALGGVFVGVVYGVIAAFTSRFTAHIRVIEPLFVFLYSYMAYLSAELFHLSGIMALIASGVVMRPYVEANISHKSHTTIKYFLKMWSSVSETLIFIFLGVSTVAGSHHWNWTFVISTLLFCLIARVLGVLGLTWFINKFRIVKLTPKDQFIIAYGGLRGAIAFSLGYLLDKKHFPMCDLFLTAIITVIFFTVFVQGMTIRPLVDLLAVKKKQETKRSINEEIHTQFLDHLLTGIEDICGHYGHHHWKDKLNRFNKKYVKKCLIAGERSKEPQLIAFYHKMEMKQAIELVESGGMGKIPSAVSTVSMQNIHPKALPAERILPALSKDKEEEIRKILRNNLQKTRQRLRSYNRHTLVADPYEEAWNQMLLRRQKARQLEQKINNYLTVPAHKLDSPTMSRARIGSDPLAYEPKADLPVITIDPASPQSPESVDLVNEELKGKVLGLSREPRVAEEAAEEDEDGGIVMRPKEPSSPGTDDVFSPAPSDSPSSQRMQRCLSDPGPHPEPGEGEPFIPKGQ

Take `CN(C)c1nc(N)c(C(=O)NC(=N)N)nc1Cl`: the IC50 (commonly the concentration at which inhibition is half-maximal) in assay [1] amounted to 23 nM; in assay [2], 250 nM; in assay [3], 14000 nM.

Regarding `CCN(c1nc(N)c(C(=O)NC(=N)N)nc1Cl)C(C)C` [5-(N-ETHYL-N-ISOPROPYL)AMILORIDE], the IC50 in assay [1] turned out to be 10 nM; in assay [4], 20 nM; in assay [5] it was 500 nM; in assay [3], 2400 nM; in assay [6] it was 420 nM.

As to `C/C(=C\c1cccc(/C=C(\C)C(=O)NC(=N)N)c1)C(=O)N=C(N)N`, the Ratio IC50 in assay [7] was > 500.
